Where only a bound is given, the exact number is not on record here.

Data set [1] is described as follows: FIG. 1: testosterone concentration in a patient at various time points after 200 mg of testosterone. The following applies: after administration; FIG. 1, 200 mg of testosterone. As for the experimental part:
FIG. 1 is a phase diagram of the testosterone concentration in a patient at various time points after being administered 200 mg of testosterone.
Hormone levels were measured after co-administration of 200 mg of testosterone and 6.25 mg of enclomiphene for 30 days. Testosterone concentration was measured at +4 hours and +12 hours after administration. […] Testosterone concentration was measured at +4 hours after administration to capture the peak testosterone concentration (cMax) and +12 hours after administration to capture the trough testosterone concentration (cMin) to determine if endogenous testosterone suppression is prevented with the enclomiphene.

Data set [2] deals with endogenous testosterone, LH, and FSH production. Description: Example 3: hormone levels after administration of enclomiphene (pre-TRT). The class given is in vivo, human. The following applies: after 6.25 mg of enclomiphene; n=1. As for the experimental part:
This example investigated the effects of administering a SERM (enclomiphene) on endogenous testosterone, LH, and FSH production.
Hormone levels were measured after administration of 6.25 mg of enclomiphene (see Table 3, n=1).

For `C[C@]12CC[C@H]3[C@@H](CCC4=CC(=O)CC[C@@]43C)[C@@H]1CC[C@@H]2O` [Testosterone, testosterone], in data set [1], the “time of testosterone peak” value was 3 to 5 h and the “time until testosterone is out of the system” value is no more than 12 h.
Regarding `CCN(CC)CCOc1ccc(/C(=C(/Cl)c2ccccc2)c2ccccc2)cc1` [enclomiphene], in data set [2], the “Calculated free testosterone levels” value is on record as 197 pg/mL; the “Sex Hormone Binding Globulin” value is 20 nmol/L; the “Testosterone, Bioavailable” value is 322.9 ng/dL; the “Testosterone, Free” value is 153.7 pg/mL. Also, in data set [2], the “Testosterone, Total, MS” value came to 724 ng/dL and the “increase of calculated free testosterone from baseline (114 pg/mL)” value is recorded as 73%.

These data come from patent publication US20250213589A1, “METHODS AND COMPOSITIONS FOR TE[…]” (priority 2023, published 2025).
